Measurements published in patent US6921776B1, “Compound” (Sterix Limited, priority 1996, dated 2005).
Where two headings read alike, the source gives them in different places.

Legend:
[1] = in vivo; cited from earlier work
[2] = target: T1, oestrone sulphatase (E1-STS) (Homo sapiens, UniProt P08842); conditions: for E1-STS inhibitory potency compared with COUMATE: placental microsomes
T1 sequence (P08842 22-583): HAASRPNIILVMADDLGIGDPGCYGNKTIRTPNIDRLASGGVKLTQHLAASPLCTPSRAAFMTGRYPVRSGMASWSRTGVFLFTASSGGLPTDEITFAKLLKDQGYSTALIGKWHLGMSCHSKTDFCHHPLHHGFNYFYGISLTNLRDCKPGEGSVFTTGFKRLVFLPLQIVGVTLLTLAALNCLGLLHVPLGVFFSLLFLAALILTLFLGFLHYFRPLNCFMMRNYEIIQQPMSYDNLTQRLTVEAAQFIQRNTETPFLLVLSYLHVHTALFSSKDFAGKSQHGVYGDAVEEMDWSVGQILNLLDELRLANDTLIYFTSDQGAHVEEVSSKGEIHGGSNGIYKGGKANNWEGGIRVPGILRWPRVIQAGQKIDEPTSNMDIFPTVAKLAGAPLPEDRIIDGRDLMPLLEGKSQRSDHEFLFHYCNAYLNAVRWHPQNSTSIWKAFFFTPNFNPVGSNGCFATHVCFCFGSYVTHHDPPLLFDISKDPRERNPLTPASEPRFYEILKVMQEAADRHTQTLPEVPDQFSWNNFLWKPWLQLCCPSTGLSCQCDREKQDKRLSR

[3] = target: T1, oestrone sulphatase (E1-STS); conditions: cited from earlier work; for Mode of E1-STS inhibition: literature
[4] = target: T2, dehydroepiandrosterone sulphatase (DHA-STS) (Homo sapiens, UniProt P08842); conditions: read-out: IC50 for inhibition of DHEA sulphatase in placental microsomes; from Ref. 25; cited from earlier work
T2 sequence (P08842 22-583): T1 sequence (P08842 22-583)

[5] = target: T3, rat liver DHA-STS (Rattus norvegicus, UniProt P15589); conditions: administered orally or subcutaneously; cited from earlier work
T3 construct: host or cells: rat liver, after dosing in vivo
T3 sequence (P15589 20-577): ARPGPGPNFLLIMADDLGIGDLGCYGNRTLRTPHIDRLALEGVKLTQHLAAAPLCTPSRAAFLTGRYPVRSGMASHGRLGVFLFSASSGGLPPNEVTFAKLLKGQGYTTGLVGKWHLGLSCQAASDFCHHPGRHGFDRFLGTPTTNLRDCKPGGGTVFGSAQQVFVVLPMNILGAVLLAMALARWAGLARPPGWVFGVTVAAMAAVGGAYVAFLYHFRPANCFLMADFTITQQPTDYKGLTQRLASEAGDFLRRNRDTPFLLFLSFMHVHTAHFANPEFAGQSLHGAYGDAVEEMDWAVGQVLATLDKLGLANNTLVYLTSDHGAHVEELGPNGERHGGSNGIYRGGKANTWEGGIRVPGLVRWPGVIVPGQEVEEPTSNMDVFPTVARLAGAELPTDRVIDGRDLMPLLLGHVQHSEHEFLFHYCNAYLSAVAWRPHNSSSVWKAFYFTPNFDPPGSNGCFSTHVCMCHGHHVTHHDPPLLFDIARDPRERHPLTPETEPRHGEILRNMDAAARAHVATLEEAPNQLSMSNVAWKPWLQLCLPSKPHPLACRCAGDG

[6] = target: T1, oestrone sulphatase (E1-STS); set-up: endogenous in cells; host or cells: MCF-7 breast cancer cells; conditions: 0.1 μM; cited from earlier work
[7] = Chemical and thermal stability of coumarin sulphate; format: physicochemical; conditions: sodium hydroxide in methanol
[8] = target: T4, E1-STS (Homo sapiens, UniProt P08842); conditions: previous work, Ref. 28; cited from earlier work
T4 sequence (P08842 22-583): T1 sequence (P08842 22-583)

[9] = target: T4, E1-STS; assay: Substrate test: hydrolysis of coumarin sulphates by placental microsomes in absence or presence of EMATE; conditions: 100 μg, 1 h, placental microsomes ± EMATE 10 μM
[10] = target: T1, oestrone sulphatase (E1-STS); conditions: cited from earlier work
[11] = target: T5, E1-STS (Rattus norvegicus, UniProt P15589); assay: E1-STS activity in uteri of treated ovariectomised rats; format: in vivo; conditions: 1 mg/kg s.c. for 5 days
T5 construct: The E1-STS activity in the uteri obtained from these animals; from tissue; host or cells: uteri of ovariectomised rats dosed in vivo
T5 sequence (P15589 20-577): T3 sequence (P15589 20-577)

[12] = target: T6, oestrone sulphatase (Rattus norvegicus, UniProt P15589); assay: Sulphatase activity in white blood cells of rats after oral dosing; format: in vivo
T6 construct: from tissue; host or cells: white blood cells of orally dosed rats
T6 sequence (P15589 20-577): T3 sequence (P15589 20-577)

[13] = tested on: ovariectomised rats; assay: Oestrogenic activity: uterine weight in ovariectomised rats; format: in vivo, rat; conditions: 1 mg/kg s.c. for 5 days
[14] = tested on: ovariectomized rats; conditions: oral, from Ref. 31; cited from earlier work
[15] = target: T1, oestrone sulphatase (E1-STS); assay: Time- and concentration-dependent inactivation of oestrone sulphatase in placental microsomes (preincubation); format: biochemical
[16] = target: T1, oestrone sulphatase (E1-STS); assay: Inhibition of oestrone sulphatase (E1-STS) in intact MCF-7 breast cancer cells; conditions: 10 μM
[17] = tested on: ovariectomized rats; assay: Oestrogenicity after oral administration: E1S-stimulated uterine growth in ovariectomized rats; format: in vivo, rat
Text: The oestrogenic activity of 17 was also studied.

C[C@]12CC[C@@H]3c4ccc(OS(=O)(=O)O)cc4CC[C@H]3[C@@H]1CCC2=O [E1S, oestrone sulphate]
Half-life in blood [1]: 10 to 12 h

C[C@]12CC[C@@H]3c4ccc(OS(N)(=O)=O)cc4CC[C@H]3[C@@H]1CCC2=O [EMATE, oestrone-3-sulphamate]
IC50 [2]: 25 nM
Mode of E1-STS inhibition [3]: time- and concentration-dependent manner
KI (inactivation) ([3]; read-out: Apparent Ki for E1-STS inactivation, from Ref. 25): 670 nM
IC50 [4]: 110 nM
Inhibition of rat liver DHA-STS activity [5]: 99%
% inhibition of E1-STS activity in intact MCF-7 cells [6]: more than 99%

CCc1cc(=O)oc2cc(OS(N)(=O)=O)ccc12 [compound 4, 4-Ethylcoumarin-7-O-sulphamate]
% Inhibition ± S.D. of E1-STS activity in placental microsomes ([2]; 0.1 μM (Table 1)): 35 ± 1%
% Inhibition ± S.D. of E1-STS activity in placental microsomes ([2]; 1 μM (Table 1)): 88 ± 1%
% Inhibition ± S.D. of E1-STS activity in placental microsomes ([2]; 10 μM (Table 1)): >99%
E1-STS inhibitory potency compared with COUMATE [2]: more potent E1-STS inhibitors than COUMATE

CCCc1cc(=O)oc2cc(OS(N)(=O)=O)ccc12 [compound 6, 4-(n-Propyl)coumarin-7-O-sulphamate]
% Inhibition ± S.D. of E1-STS activity in placental microsomes ([2]; 0.1 μM (Table 1)): 42 ± 2%
% Inhibition ± S.D. of E1-STS activity in placental microsomes ([2]; 1 μM (Table 1)): 94 ± 1%
% Inhibition ± S.D. of E1-STS activity in placental microsomes ([2]; 10 μM (Table 1)): 96 ± 1%
E1-STS inhibitory potency compared with COUMATE [2]: more potent E1-STS inhibitors than COUMATE

CCc1c(C)c2ccc(OS(N)(=O)=O)cc2oc1=O [compound 8, 3-Ethyl-4-methylcoumarin-7-O-sulphamate]
% Inhibition ± S.D. of E1-STS activity in placental microsomes ([2]; 0.1 μM (Table 1)): 57 ± 1%
% Inhibition ± S.D. of E1-STS activity in placental microsomes ([2]; 1 μM (Table 1)): 96 ± 1%
% Inhibition ± S.D. of E1-STS activity in placental microsomes ([2]; 10 μM (Table 1)): >99%
E1-STS inhibitory potency compared with COUMATE [2]: more potent E1-STS inhibitors than COUMATE

CCCc1c(C)c2ccc(OS(N)(=O)=O)cc2oc1=O [compound 11, 4Methyl-3-(n-propyl)coumarin-7-O-sulphamate]
% Inhibition ± S.D. of E1-STS activity in placental microsomes ([2]; 0.1 μM (Table 1)): 83 ± 1%
% Inhibition ± S.D. of E1-STS activity in placental microsomes ([2]; 1 μM (Table 1)): 97 ± 1%
% Inhibition ± S.D. of E1-STS activity in placental microsomes ([2]; 10 μM (Table 1)): >99%
E1-STS inhibitory potency compared with COUMATE [2]: more potent E1-STS inhibitors than COUMATE

Cc1cc(=O)oc2cc(OS(=O)(=O)[O-])ccc12.[Na+] [compound 12, 7-(Sulphoxy)-4-Methylcoumarin, sodium salt]
Stability in basic and acidic conditions [7]: stable in bases such as sodium hydroxide in methanol but not in acidic conditions
Substrate for E1-STS [8]: substrate for E1-STS
melting point: 172 to 175 °C (dec.)
Substrate for E1-STS [9]: the coumarin sulphate is indeed a substrate for the sulphatase

Cc1cc(=O)oc2cc(OS(N)(=O)=O)ccc12 [compound 14]
% Inhibition ± S.D. of E1-STS activity in placental microsomes ([10]; 0.1 μM (Table 1, reproduced from Ref. 28)): <10%
% Inhibition ± S.D. of E1-STS activity in placental microsomes ([10]; 1 μM (Table 1, reproduced from Ref. 28)): 63 ± 1%
Inhibition of E1-STS activity in uteri compared with untreated animals [11]: 89.4%
Oral activity in rats [12]: potent oral activity
% Inhibition of sulphatase activity in white blood cells, MD ([12]; daily for seven days 0.1 mg/kg): 65%
% Inhibition of sulphatase activity in white blood cells, MD ([12]; daily for seven days 1.0 mg/kg): 85%
% Inhibition of sulphatase activity in white blood cells, MD ([12]; daily for seven days 10.0 mg/kg): 89%
Effect on uterine weight (oestrogenic activity) [13]: did not result in any significant increase in the uterine weight
Oestrogenicity [14]: devoid of oestrogenicity
Mode of E1-STS inhibition [15]: time- and concentration-dependent manner in a biphasic fashion

NS(=O)(=O)Oc1ccc2c(C(F)(F)F)cc(=O)oc2c1 [compound 16]
% inhibition of E1-STS in intact MCF-7 cells [16]: 71.5%

NS(=O)(=O)Oc1ccc2c3c(c(=O)oc2c1)CCCCC3 [compound 17, 6-Oxo-8,9,10,11-tetrahydro-7H-cyclohepta-[c][1]benzopyran-3-O-sulphamate]
Oestrogenicity [17]: devoid of oestrogenicity
Oestrogenicity ([17]; listed as 667COUMATE): not being oestrogenic

O=c1oc2cc(OS(=O)(=O)O)ccc2c2c1CCCCC2 [compound 18, 6-Oxo-3-sulfooxy-8,9,10,11-tetrahydro-7H-cyclohepta-[c][1]-benzopyran]
Substrate for E1-STS [9]: is a substrate for this enzyme

NS(=O)(=O)Oc1ccc2c3c(c(=O)oc2c1)CCCCCC3 [compound 20, 6-Oxo-7,8,9,10,11,12-hexahydro-cycloocta-[c][1]benzopyran-3-O-sulphamate]
% Inhibition ± S.D. of E1-STS activity in placental microsomes ([2]; 0.01 μM (Table 2)): 17 ± 2%
% Inhibition ± S.D. of E1-STS activity in placental microsomes ([2]; 0.1 μM (Table 2)): 89 ± 1%
Inhibition of E1-STS in placental microsomes ([2]; 1 μM): almost complete inhibition
% Inhibition ± S.D. of E1-STS activity in placental microsomes ([2]; 1 μM (Table 2)): >99%

NS(=O)(=O)Oc1ccc2c(c1)OC(=O)CC1=C2CCCC1 [compound 22, 6-Oxo-6,7,8,9,10,11-hexahydrodibenz[b,d]oxepin-3-O-sulphamate]
% Inhibition ± S.D. of E1-STS activity in placental microsomes ([2]; 0.01 μM (Table 2)): <10%
% Inhibition ± S.D. of E1-STS activity in placental microsomes ([2]; 0.1 μM (Table 2)): 31 ± 5%
% Inhibition ± S.D. of E1-STS activity in placental microsomes ([2]; 1 μM (Table 2)): 94 ± 2%

Coumarin-7-O-sulphamate [compound 13]
% Inhibition ± S.D. of E1-STS activity in placental microsomes ([10]; 10 μM (Table 1, reproduced from Ref. 28)): 78 ± 1%
% Inhibition of E1-STS activity in placental microsomes ([10]; 50 μM (footnote a, Ref. 28)): > 90%

oestrone-3-N-sulphamate
Mode of E1-STS inhibition [3]: weaker non-time-dependent inactivators

oestrone-3-S-sulphamate
Mode of E1-STS inhibition [3]: weaker non-time-dependent inactivators
